Test results published in article PMC12736495, “First Insights into the Anti-Inflammatory Potential of Colliguaja odorifera Molina Leaf Extracts and Their Isolated Phenolic Compounds” (Plants, 2025).
Entries after “also recorded” stand apart in the source; their conditions may differ. Where two headings read alike, the source gives them in different places.

Columns and labels:
Lipoxygenase = settings: cited from earlier work
[1] = biological target: T1, lipoxygenase Type I-B LOX A from Glycine max L. (soybean) (15-LOX) (Glycine max, UniProt P08170); experiment: Inhibitory LOX activity assay (linoleic acid, absorbance at 234 nm); assay type: biochemical
T1 construct: purchased Sigma-Aldrich (Steinheim, Germany)
T1 sequence (P08170 1-839): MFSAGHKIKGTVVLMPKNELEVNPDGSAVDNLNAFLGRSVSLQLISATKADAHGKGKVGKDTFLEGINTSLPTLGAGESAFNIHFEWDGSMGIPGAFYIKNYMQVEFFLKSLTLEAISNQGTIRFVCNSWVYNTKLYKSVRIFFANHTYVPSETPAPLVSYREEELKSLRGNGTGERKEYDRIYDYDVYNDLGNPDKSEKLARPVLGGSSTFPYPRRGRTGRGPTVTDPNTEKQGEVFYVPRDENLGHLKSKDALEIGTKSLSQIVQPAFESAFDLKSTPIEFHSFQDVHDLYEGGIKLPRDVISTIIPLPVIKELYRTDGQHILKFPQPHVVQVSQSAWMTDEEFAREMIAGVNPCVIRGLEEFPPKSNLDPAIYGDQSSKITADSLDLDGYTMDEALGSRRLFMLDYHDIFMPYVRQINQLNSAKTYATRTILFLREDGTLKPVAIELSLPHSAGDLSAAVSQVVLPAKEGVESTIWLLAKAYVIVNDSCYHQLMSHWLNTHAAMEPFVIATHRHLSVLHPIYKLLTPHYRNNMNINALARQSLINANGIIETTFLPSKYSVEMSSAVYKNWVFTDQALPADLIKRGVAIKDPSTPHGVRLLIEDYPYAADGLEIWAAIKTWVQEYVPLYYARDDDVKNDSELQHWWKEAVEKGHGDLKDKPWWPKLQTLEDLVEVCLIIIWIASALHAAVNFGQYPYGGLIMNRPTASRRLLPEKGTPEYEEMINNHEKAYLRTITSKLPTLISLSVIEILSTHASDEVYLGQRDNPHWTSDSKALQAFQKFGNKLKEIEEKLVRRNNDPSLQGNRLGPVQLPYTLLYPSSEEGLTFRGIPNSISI
Procedure: The inhibitory LOX assay was conducted according to the procedure established by Lyckander and Malterud. The lipoxygenase Type I-B LOX A from Glycine max L. (soybean) (CAS: 9029-60-1) (15-LOX) with an optimal pH of 8.0–9.0 and linoleic acid used here, was obtained from Sigma-Aldrich (Steinheim, Germany).
A linoleic acid ethanol solution (268 µM) was prepared, and 50 µL of this solution was used to prepare concentrations ranging from 0.6 to 26 µg/mL for the HA-E sample, and from 0.6 to 12.9 µg/mL for the EA-E and B-E samples. Then the volume for each concentration was adjusted to 1 mL with 200 mM borate buffer (pH 8.75) containing 0.005% Tween 80. The reaction was initiated by adding 1.5 µL of Soybean 1-LOX (948 U), equivalent to 0.054 g/mL. Enzymatic activity was monitored by measuring the increase in absorbance at 234 nm for 4 min at 37 °C. Each enzyme measurement for each dilution was repeated three times. All tests were performed in triplicate. For this purpose, three samples were taken from each extract. For each of them, enzymatic activity was determined as described above. […] The percentage inhibition of enzyme activity was calculated by comparing the absorbance of the samples to that of the blank, using Equation (1), where A0 is the absorbance of the blank, and A1 is the absorbance of the sample.% inhibition = [(A0 − A1)/A0] × 100(1)
The percentage of inhibition was plotted against sample concentration to calculate the IC50 value.

sPLA2 (Type V) = biological target: T2, sPLA2 (Type V) (Homo sapiens, UniProt P39877); experiment: Screening assay for phospholipase A2 inhibitors (Type V), Cayman kit; assay type: biochemical
T2 construct: purchased Cayman Chemical Co. (Ann Arbor, MI, USA)
T2 sequence (P39877 21-138): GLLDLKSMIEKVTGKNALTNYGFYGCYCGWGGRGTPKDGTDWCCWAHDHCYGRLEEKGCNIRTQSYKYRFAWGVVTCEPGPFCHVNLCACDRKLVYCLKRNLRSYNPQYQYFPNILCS
Procedure: The phospholipase A2 inhibitory activity was determined using the phospholipase A2 (sPLA2) inhibitor detection assay kit (Type V). This kit was purchased from Cayman Chemical Co. (Ann Arbor, MI, USA). Briefly, 10 μL of C. odorifera extracts (HA-E, EA-E, B-E, and W-E, separately) were pre-incubated with 25 mM Tris-HCl buffer at pH 7.5, including 10 μL of phospholipase A2. The reaction was initiated by adding 200 μL of a 1.66 mM diheptanoyl thio-PC substrate solution. The plate was then shaken for 30 s and incubated at 25 °C for 15 min. Then, 10 µL of 5,5′-dithiobis(2-nitrobenzoic acid) (DTNB) was added to stop the enzymatic reaction and allow color development. The reaction mixture was stirred on a shaker for one minute, and the absorbance was subsequently measured at 405 nm with a spectrophotometer (METASH, UV-1500B; Shanghai Metash Instrument Co., Shanghai, China). According to the kit instructions, the sPLA2 activity was evaluated with extract concentrations ranging from 27 to 108 μg/mL. Arachidonic thioester phosphatidylcholine was used as the positive control. […] All tests were performed in triplicate.

hyaluronidase = biological target: T3, hyaluronidase (Bos taurus, UniProt Q2YDK3); experiment: Hyaluronidase inhibition assay (turbidimetric kit); assay type: biochemical; settings: sodium hyaluronate substrate, 37 °C, mean ± s.d.
T3 sequence (Q2YDK3 36-553): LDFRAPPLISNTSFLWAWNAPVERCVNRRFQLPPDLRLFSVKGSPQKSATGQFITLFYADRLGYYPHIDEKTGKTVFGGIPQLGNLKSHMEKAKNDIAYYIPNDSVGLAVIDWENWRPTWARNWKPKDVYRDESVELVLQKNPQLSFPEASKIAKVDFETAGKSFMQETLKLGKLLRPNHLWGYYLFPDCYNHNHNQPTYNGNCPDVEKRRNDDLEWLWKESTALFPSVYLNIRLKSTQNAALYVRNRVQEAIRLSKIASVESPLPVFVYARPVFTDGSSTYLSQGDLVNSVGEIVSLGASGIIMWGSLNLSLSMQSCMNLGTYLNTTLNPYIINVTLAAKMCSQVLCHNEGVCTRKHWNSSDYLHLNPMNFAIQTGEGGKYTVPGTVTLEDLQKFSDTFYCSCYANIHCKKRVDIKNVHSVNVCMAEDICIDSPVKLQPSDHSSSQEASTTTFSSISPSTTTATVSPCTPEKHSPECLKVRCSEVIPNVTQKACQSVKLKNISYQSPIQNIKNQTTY
Procedure: The hyaluronidase inhibitory activity of the extracts was assessed using the Hyaluronidase Inhibitor Detection Assay Kit purchased from Sigma-Aldrich (St. Louis, MO, USA), which employs a two-step turbidimetric reaction to measure the amount of hyaluronic acid hydrolyzed by the enzyme, where the decrease in turbidity is proportional to the enzymatic activity of the sample. The assay was conducted according to the manufacturer’s instructions, with slight modifications, using 96-well plates. Briefly, a reaction mixture containing 10 μL of C. odorifera extract (HA-E, EA-E, B-E, and W-E, separately) and 20 μL of the enzyme (at a concentration of 100 U/mL in incubation buffer) was mixed in each well. After a 15 min incubation at 37 °C, a 20 μL substrate solution (0.1% sodium hyaluronate) was added to each well. The plates were incubated at 37 °C for an additional 20 min. Then, non-hydrolyzed […] was precipitated by adding 250 μL of 2.5% cetyltrimethylammonium bromide (CTAB). […] The intensity of complex formation was measured by absorbance at 630 nm in a spectrophotometer (METASH, UV-1500B). […] The percentage of hyaluronidase inhibition was calculated using Equation (2), where AS is the absorbance of the solution with the sample extract, AC is the absorbance of the solution without inhibitor, and AT is the absorbance of the enzyme.Inhibition = (AS − AC)/(AT − AC) × 100(2)

[2] = LOX Inhibition (IC50 µg/mL), soybean 15-LOX, linoleic acid substrate, borate buffer pH 8.75, 37 °C, mean ± s.d.
[3] = anti-LOX activity, concentration for 50% inhibition in µM, same LOX IC50 expressed in µM

In the case of `O=c1cc(-c2ccccc2)oc2cc(O)c(O)c(O)c12` [Baicalein], the “Lipoxygenase inhibition IC50” value (Lipoxygenase; Euphorbiaceae extract and its control) is given as 22.4 µg/mL and the “Lipoxygenase inhibition IC50” value (Lipoxygenase; extract and its control) is given as 0.15 µg/mL.

Work on `CCOC(=O)c1cc(O)c(O)c(O)c1` [Ethyl gallate] yielded an IC50 ([1]; soybean 15-LOX, linoleic acid substrate, borate buffer pH 8.75, 37 °C, mean ± s.d., read-out: LOX Inhibition (IC50 µg/mL) (converted)) of 329 µM.

In the case of `O=C(O)c1cc(O)c(O)c(O)c1` [Gallic acid], the IC50 (sPLA2 (Type V)) is reported as 65.6 µM, the IC50 [1, 2] is reported as 2.17 µM and the IC50 [1, 3] is reported as 2.2 µM.

In the case of `CC(C)Cc1ccc(C(C)C(=O)O)cc1` (centres unmarked) [Ibuprofen], the “Lipoxygenase inhibition IC50” value (Lipoxygenase; extract and its control) is given as 69.7 µg/mL.

In the case of `COc1ccc2c(c1)c(CC(=O)O)c(C)n2C(=O)c1ccc(Cl)cc1` [Indomethacin], the “Lipoxygenase inhibition IC50” value (Lipoxygenase; extract and its control) is listed as 7.9 µg/mL.

`COC(=O)c1cc(O)c(O)c(O)c1` [Methyl gallate] showed an IC50 [1, 2] of 330 µM.

Molecule `O=c1c(O)c(-c2ccc(O)c(O)c2)oc2cc(O)cc(O)c12` [Quercetin, reference compound] has an IC50 (sPLA2 (Type V); sPLA2-V, diheptanoyl thio-PC substrate, 25 °C, mean ± s.d., read-out: sPLA2 Inhibition (IC50 µg/mL) (converted)) of 77.7 µM.

In the case of `O=C(O)C1=C[C@@H](O)[C@@H](O)[C@H](O)C1` [Shikimic acid], the “sPLA2 Inhibition (IC50 µg/mL)” value (sPLA2 (Type V); sPLA2-V, diheptanoyl thio-PC substrate, 25 °C, mean ± s.d.) is reported as “did not elicit anti-sPLA2-V; also recorded: not active”, the “HA Inhibition (IC50 µg/mL)” value (hyaluronidase) is reported as “did not elicit anti-sPLA2-V and anti-hyaluronidase activities” and the IC50 [1, 2] is reported as 5.57 µM. The IC50 [1, 3] was 5.6 µM.
